What all share (format): functional
Test [1] deals with Rhizomucor miehei. As to the kind of experiment: Antifungal activity against Mucor miehei by plate diffusion assay.
Test [2] deals with Bacillus subtilis. As to the kind of experiment: Antibacterial activity against Bacillus subtilis ATCC 6633 by serial dilution assay.
The subject of test [3] is L1210. As to the kind of experiment: Cytotoxicity against mouse L1210 cells. Conditions: read-out: ED50 (the source's name).

Our source for the MIC and EC50 values is ChEMBL document CHEMBL1148042, “Novel bioactive diterpenoids from Aframomum aulacocarpos” (1994).

In brackets after ≈: the same amount, converted by molar mass.

For orientation: MIC means the lowest concentration that inhibits growth of the organism. The low end stands for a more susceptible organism, the high end for a less susceptible organism. Regarding `COC(=O)/C(=C/C[C@H]1[C@@]2(CC[C@H]3C(C)(C)[C@@H](O)CC[C@@]31C)CO2)C1CO1` (stereo partly drawn) [AULACOCARPINE A], the MIC was 50 µg/mL (≈ 137 µM) in test [1] and 25 µg/mL (≈ 68.6 µM) in test [2].
Consider `COC(=O)/C(=C/C[C@H]1[C@]2(CO2)C[C@@H](O)[C@H]2C(C)(C)[C@@H](O)CC[C@@]21C)C1CO1` (stereo partly drawn) [AULACOCARPIN B], for which the minimum inhibitory concentration (MIC) was found to be 50 µg/mL (≈ 131 µM) in test [1] and 25 µg/mL (≈ 65.7 µM) in test [2]. Further, in test [3], the EC50 was determined as 25 µg/mL (≈ 65.7 µM).
For `CC1(C)[C@@H](O)CC[C@]2(C)C3=C(CC[C@@H]12)CO[C@@H](C1=CCOC1=O)C3` [AULACOCARPINOLIDE], the MIC in test [1] turned out to be 50 µg/mL (≈ 150 µM); in test [2] it was 25 µg/mL (≈ 75.2 µM). Besides, the EC50 in test [3] worked out at 12.5 µg/mL (≈ 37.6 µM).
